According to paper PMC11307993 (ACS Omega, 2024):
Values joined by “and” are separate entries in the source; they are usually repeats but may differ in a detail not shown here. Equal entries are not always repeated. Blank lines part the entries; values can stand above or below the molecule they belong to.

Experiments:
[1] = test system: acetic acid-induced writhing; assay: In vivo analgesic assay, acetic acid-induced writhing method; design: species or system Wistar rats; details: for potency: % inhibition of tested compound / % inhibition of reference (celecoxib); for % inhibition (number of writhing) / no. of writhes (mean ± SE): acetic acid-induced writhing
rat stomach = assay: Gastric ulcerogenic activity; assay type: in vivo; details: oral 10 mg/kg
[2] = test system: serum levels of LDH, Tn-I, TNF-α and CK-MB; assay: Evaluation of cardiovascular parameters; assay type: in vivo, rats; details: rat serum, 100 mg/kg oral, 2 weeks
[3] = test system: carrageenan induced rat paw edema; assay: In vivo anti-inflammatory assay, carrageenan-induced paw edema; details: 2 mg/kg oral; for % of edema inhibition 1 h: 1 h after carrageenan injection; for % of edema inhibition 3 h: 3 h after carrageenan injection; for % of edema inhibition 5 h: 5 h after carrageenan injection
COX-2 = target: T1, COX-2 (Homo sapiens, UniProt P35354); assay: biochemical; assay type: biochemical; details: for SI (selectivity index): IC50 (COX-1)/IC50 (COX-2); for fold less potent than compound 8o against COX-2: ratio of COX-2 IC50 values
T1 sequence (P35354 18-604): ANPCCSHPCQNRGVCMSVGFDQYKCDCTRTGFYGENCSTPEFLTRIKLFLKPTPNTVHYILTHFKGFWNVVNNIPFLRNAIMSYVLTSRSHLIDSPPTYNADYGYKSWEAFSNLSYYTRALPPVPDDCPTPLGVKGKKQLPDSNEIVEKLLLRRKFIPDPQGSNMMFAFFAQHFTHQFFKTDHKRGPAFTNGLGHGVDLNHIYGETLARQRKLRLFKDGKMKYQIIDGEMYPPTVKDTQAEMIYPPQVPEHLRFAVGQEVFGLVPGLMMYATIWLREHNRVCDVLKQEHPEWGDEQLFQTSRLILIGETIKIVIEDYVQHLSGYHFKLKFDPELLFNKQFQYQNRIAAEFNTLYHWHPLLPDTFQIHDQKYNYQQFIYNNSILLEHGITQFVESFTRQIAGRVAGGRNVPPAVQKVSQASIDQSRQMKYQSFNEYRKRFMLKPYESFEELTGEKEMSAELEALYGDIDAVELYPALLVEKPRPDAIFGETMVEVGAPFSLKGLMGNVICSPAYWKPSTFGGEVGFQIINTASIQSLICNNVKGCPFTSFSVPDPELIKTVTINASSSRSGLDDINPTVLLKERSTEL

sEH = target: T2, sEH (Homo sapiens, UniProt P34913); assay: In vitro sEH inhibition assay; assay type: biochemical; details: sEH (IC50, nM)
T2 sequence (P34913 1-555): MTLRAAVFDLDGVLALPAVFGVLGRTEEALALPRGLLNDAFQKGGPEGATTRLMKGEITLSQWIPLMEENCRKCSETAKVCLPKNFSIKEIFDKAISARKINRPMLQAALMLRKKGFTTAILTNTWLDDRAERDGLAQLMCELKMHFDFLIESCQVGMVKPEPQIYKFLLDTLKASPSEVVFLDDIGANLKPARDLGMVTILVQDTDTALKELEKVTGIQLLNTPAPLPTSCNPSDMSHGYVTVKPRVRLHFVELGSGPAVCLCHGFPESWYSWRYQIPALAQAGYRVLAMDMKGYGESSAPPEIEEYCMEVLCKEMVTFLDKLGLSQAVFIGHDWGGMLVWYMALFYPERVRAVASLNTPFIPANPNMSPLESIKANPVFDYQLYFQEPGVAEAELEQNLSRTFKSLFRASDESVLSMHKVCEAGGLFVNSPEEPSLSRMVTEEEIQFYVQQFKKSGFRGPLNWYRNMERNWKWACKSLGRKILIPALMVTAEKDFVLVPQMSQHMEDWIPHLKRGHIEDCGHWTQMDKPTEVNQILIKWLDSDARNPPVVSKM

5-LOX = details: read-out: 5-LOX (IC50)
[4] = cited from earlier work

Compound: Cc1ccc(-c2cc(C(F)(F)F)nn2-c2ccc(S(N)(=O)=O)cc2)cc1 [Celecoxib, reference compound]
potency [1]: 1.00 | % inhibition (number of writhing) [1]: 13.5% | no. of writhes (mean ± SE) [1]: 29.00 ± 0.70 | % inhibition (number of writhing) ([1]; listed as celecoxib): 13.50% | score: no. of gastric ulcers (rat stomach): 2.5 ± 0.10 | score: severity lesions (rat stomach): 5.80 ± 0.20 | CK-MB (IU/L) [2]: 96 ± 04 IU/L | LDH (IU/L) [2]: 2100 ± 90 IU/L | troponin-I [2]: 340 ± 10 pg/mL | % of edema inhibition 1 h [3]: 40% | % of edema inhibition 3 h [3]: 54% | % of edema inhibition 5 h [3]: 22%

Compound: N#CC1=C(N)n2c(nnc2-c2ccccc2)NC1c1ccccc1 (centres unmarked) [Compound 8a, 5-Amino-7,8-dihydro-3,7-diphenyl-[1,2,4]triazolo[4,3-a]pyrimidine-6-carbonitrile]
IC50 (COX-2): 21.7 µM | SI (selectivity index) (COX-2): 10

Compound: Cc1ccc(C2Nc3nnc(-c4ccccc4)n3C(N)=C2C#N)cc1 (centres unmarked) [Compound 8d, 5-Amino-7,8-dihydro-3-phenyl-7-p-tolyl-[1,2,4]triazolo[4,3-a]pyrimidine-6-carbonitrile]
IC50 (COX-2): 46.9 µM | SI (selectivity index) (COX-2): 6

Compound: COc1ccc(C2Nc3nnc(-c4ccccc4)n3C(N)=C2C#N)cc1 (centres unmarked) [Compound 8e, 5-Amino-7,8-dihydro-7-(4-methoxyphenyl)-3-phenyl-[1,2,4]triazolo[4,3-a]pyrimidine-6-carbonitrile]
IC50 (COX-2): 29.7 µM | SI (selectivity index) (COX-2): 8 | fold less potent than compound 8o against COX-2 (COX-2): 2.8 fold

Compound: N#CC1=C(N)n2c(nnc2-c2ccncc2)NC1c1ccccc1 (centres unmarked) [Compound 8f, 5-Amino-7,8-dihydro-7-phenyl-3-(pyridin-4-yl)-[1,2,4]triazolo[4,3-a]pyrimidine-6-carbonitrile]
IC50 (COX-2): 51.5 µM | SI (selectivity index) (COX-2): 6

Compound: COc1ccc(C2Nc3nnc(-c4ccncc4)n3C(N)=C2C#N)cc1 (centres unmarked) [Compound 8j, 5-Amino-7,8-dihydro-7-(4-methoxyphenyl)-3-(pyridin-4-yl)-[1,2,4]-triazolo[4,3-a]pyrimidine-6-carbonitrile]
IC50 (COX-2): 42.7 µM | SI (selectivity index) (COX-2): 7 | fold less potent than compound 8o against COX-2 (COX-2): 4 fold

Compound: N#CC1=C(N)n2c(nnc2-c2cccnc2)NC1c1ccccc1 (centres unmarked) [Compound 8k, 5-Amino-7,8-dihydro-7-phenyl-3-(pyridin-3-yl)-[1,2,4]triazolo[4,3-a]pyrimidine-6-carbonitrile]
IC50 (COX-2): 37.5 µM | SI (selectivity index) (COX-2): 8 | fold less potent than compound 8o against COX-2 (COX-2): 3.5 fold

Compound: N#CC1=C(N)n2c(nnc2-c2cccnc2)NC1c1ccc(Br)cc1 (centres unmarked) [Compound 8l, 5-Amino-7-(4-bromophenyl)-7,8-dihydro-3-(pyridin-3-yl)-[1,2,4]triazolo [4,3-a]pyrimidine-6-carbonitrile]
IC50 (COX-2): 53.7 µM | SI (selectivity index) (COX-2): 4

Compound: N#CC1=C(N)n2c(nnc2-c2cccnc2)NC1c1ccc(Cl)cc1 (centres unmarked) [Compound 8m, 5-Amino-7-(4-chlorophenyl)-7,8-dihydro-3-(pyridin-3-yl)-[1,2,4]triazolo [4,3-a]pyrimidine-6-carbonitrile]
IC50 (COX-2): 11.6 µM | SI (selectivity index) (COX-2): 20 | IC50 (sEH): 2.95 ± 0.08 nM | potency [1]: 3 | % inhibition (number of writhing) [1]: 41% | no. of writhes (mean ± SE) [1]: 19.00 ± 0.60 | CK-MB (IU/L) [2]: 20 ± 02 IU/L | LDH (IU/L) [2]: 1485 ± 60 IU/L | troponin-I [2]: 128 ± 06 pg/mL | IC50 (5-LOX): 2.9 µM and 3.05 µM | % of edema inhibition 1 h [3]: 32% | % of edema inhibition 3 h [3]: 59% | % of edema inhibition 5 h [3]: 70%

Compound: Cc1ccc(C2Nc3nnc(-c4cccnc4)n3C(N)=C2C#N)cc1 (centres unmarked) [Compound 8n, 5-Amino-7,8-dihydro-3-(pyridin-3-yl)-7-p-tolyl-[1,2,4]triazolo[4,3-a]pyrimidine-6-carbonitrile]
IC50 (COX-2): 21.9 µM | SI (selectivity index) (COX-2): 10

IC50 (sEH): 2.1 ± 0.07 nM | IC50 (5-LOX): 3.05 µM
Compound: COc1ccc(C2Nc3nnc(-c4cccnc4)n3C(N)=C2C#N)cc1 (centres unmarked) [Compound 8o, 5-Amino-7,8-dihydro-7-(4-methoxyphenyl)-3-(pyridin-3-yl)-[1,2,4] triazolo[4,3-a]pyrimidine-6-carbonitrile]
potency [1]: 3.5 | % inhibition (number of writhing) [1]: 47% and 47.50% | no. of writhes (mean ± SE) [1]: 15.00 ± 0.50 | score: no. of gastric ulcers (rat stomach): 0 | score: severity lesions (rat stomach): 0 | ulceration in the isolated rat stomach (observation) (rat stomach): no ulceration | CK-MB (IU/L) [2]: 17 ± 01 IU/L | LDH (IU/L) [2]: 1390 ± 50 IU/L | troponin-I [2]: 107 ± 05 pg/mL | % of edema inhibition 1 h [3]: 37% | % of edema inhibition 3 h [3]: 61% | % of edema inhibition 5 h [3]: 73%

Compound: CC(C)Cc1ccc(C(C)C(=O)O)cc1 (centres unmarked) [ibuprofen]
ulcer index [4]: 21.26

Compound: COc1ccc2c(c1)c(CC(=O)O)c(C)n2C(=O)c1ccc(Cl)cc1 [indomethacin]
score: no. of gastric ulcers (rat stomach): 8.5 ± 0.40 | score: severity lesions (rat stomach): 12.50 ± 0.70
